Source: patent US20260200890A1, “ADAR1 INHIBITORS AND METHODS OF USING THE SAME” (AVAMMUNE THERAPEUTICS INC., priority 2022, published 2026)

Legend:
ADAR1 = biological target: T1, ADAR1 (Homo sapiens, UniProt P55265); assay: ADAR1 Inhibition Assay (IFN fold-induction, Quanti-Luc luminescence, p110 KO A549 dual cells); type: cell-based; details: IFN fold-induction vs DMSO, 24 and 48 h
T1 construct: endogenous in cells; host or cells: p110 KO A549 dual cells
T1 sequence (P55265 1-1226): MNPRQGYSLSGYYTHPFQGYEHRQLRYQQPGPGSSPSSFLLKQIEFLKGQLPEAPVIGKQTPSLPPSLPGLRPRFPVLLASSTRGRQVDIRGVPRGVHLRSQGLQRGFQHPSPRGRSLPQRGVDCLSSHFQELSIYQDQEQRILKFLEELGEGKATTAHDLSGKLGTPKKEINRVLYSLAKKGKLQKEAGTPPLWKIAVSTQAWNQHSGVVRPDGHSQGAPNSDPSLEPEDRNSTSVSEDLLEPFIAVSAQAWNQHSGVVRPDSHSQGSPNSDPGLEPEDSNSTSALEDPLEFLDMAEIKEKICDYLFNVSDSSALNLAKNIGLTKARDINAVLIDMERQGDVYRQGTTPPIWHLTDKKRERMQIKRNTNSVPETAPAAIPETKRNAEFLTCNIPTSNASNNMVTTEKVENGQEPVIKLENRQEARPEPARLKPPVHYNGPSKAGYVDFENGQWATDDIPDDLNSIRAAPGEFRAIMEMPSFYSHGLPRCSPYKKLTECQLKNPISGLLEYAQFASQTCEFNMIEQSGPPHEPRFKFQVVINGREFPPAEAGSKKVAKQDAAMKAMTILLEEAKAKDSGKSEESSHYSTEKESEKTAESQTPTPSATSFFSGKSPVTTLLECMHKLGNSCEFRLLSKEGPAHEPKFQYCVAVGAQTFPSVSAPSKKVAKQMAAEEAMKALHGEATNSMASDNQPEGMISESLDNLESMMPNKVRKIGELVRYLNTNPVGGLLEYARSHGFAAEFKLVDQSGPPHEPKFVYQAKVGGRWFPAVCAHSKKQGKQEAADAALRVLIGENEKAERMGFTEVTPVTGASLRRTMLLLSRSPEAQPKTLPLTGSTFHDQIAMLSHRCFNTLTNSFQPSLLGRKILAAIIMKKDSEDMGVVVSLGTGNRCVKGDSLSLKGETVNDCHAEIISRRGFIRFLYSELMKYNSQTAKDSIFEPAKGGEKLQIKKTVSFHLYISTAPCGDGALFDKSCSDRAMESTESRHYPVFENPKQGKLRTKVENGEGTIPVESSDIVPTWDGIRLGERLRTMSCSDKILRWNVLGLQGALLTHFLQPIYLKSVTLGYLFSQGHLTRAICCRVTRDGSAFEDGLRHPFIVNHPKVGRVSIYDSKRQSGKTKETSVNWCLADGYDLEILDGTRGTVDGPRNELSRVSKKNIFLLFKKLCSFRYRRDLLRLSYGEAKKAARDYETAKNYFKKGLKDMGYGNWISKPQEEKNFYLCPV
Procedure, shortened: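 EC50 derived from IFN fold-induction, calculated as sample RLU over average DMSO RLU. Luminescence measured by Quanti-Luc on samples taken after 24 and 48 h of compound exposure (1% DMSO final, 37 °C, 5% CO2). Cells were p110 KO A549 dual, seeded at 20,000 per well in supplemented DMEM.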

Zα domain of ADAR1 p150 = biological target: T2, Zα domain of ADAR1 p150 (Homo sapiens, UniProt P55265); assay: SPR binding assay; details: 6× his tag Zα domain immobilized on CM5 chip, analyte 0-25 μM
T2 construct: 10 μg/ml of Zα domain of ADAR1 was immobilized on CM5 chip using anti-HIS antibody; made in house
T2 sequence (P55265 133-199 limits assumed): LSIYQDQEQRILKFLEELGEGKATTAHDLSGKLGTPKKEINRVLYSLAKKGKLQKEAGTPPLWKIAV
Protocol: 6× his tag Za domain of ADAR1 p150 was purified using bacterial purification system. Protein was isolated from supernatant of cell lysate using Ni-NTA resin. For binding assay using SPR, 10 μg/ml of Zα domain of ADAR1 was immobilized on CM5 chip using anti-HIS antibody. Binding was quantified using the following condition below: • Analyte: 25, 12.5, 6.25, 3.125, 1.56, 0.78, 0 μM • Contact time—60 seconds, • Dissociation time—320 seconds • Flow rate—30 μL/minute Running buffer-PBSP+5% DMSO • After curve fitting, Kd values for synthesized compounds was quantified using the instrument software.

Row | SMILES | EC50 (ADAR1) | Kd (Zα domain of ADAR1 p150)
1 | CCOC(=O)c1cc(-c2ccccc2)sc1NC(=O)COc1cccc(NS(C)(=O)=O)c1 [Compound 147] | > 100 µM | ≤ 1 µM
2 | CCOC(=O)c1cc(-c2ccccc2)sc1NC(=O)COC(=O)C1CCCC(NS(C)(=O)=O)C1 (stereo not drawn) [Compound 150] | > 100 µM | > 25 µM
3 | CCOC(=O)c1cc(-c2ccccc2)sc1NC(=O)COC(=O)c1cccc(NS(=O)(=O)C2CC2)c1 [Compound 161] | ≤ 25 µM | > 25 µM
4 | CCOC(=O)c1cc(-c2ccccc2)sc1NC(=O)COC(=O)c1ccc2c(c1)OCCO2 [Compound 163] | > 100 µM | ≤ 1 µM
5 | CCOC(=O)c1cc(-c2ccccc2)ccc1NC(=O)COC(=O)c1cccc(NS(C)(=O)=O)c1 [Compound 171] | > 100 µM | > 25 µM
6 | CCOC(=O)c1cc(-c2ccccc2)sc1NC(=O)COC(=O)C1CN(S(C)(=O)=O)CCO1 (stereo not drawn) [Compound 172] | > 100 µM | ≤ 1 µM
7 | CCOC(=O)c1cc(-c2ccccc2)sc1NC(=O)CN(C)Cc1cccc(NS(C)(=O)=O)c1 [Compound 180] | > 100 µM | ≤ 1 µM
8 | CS(=O)(=O)Nc1cccc(C(=O)OCC(=O)N2CCN(c3ccccc3)C2=O)c1 [Compound 220] | > 100 µM | ≤ 1 µM
9 | CS(=O)(=O)Nc1cccc(C(=O)OCc2nc(=O)c3cc(-c4ccccc4)sc3[nH]2)c1 [Compound 241] | > 100 µM | ≤ 1 µM
10 | CCOC(=O)c1cc(-c2ccccc2)sc1NC(=O)c1ccc(-c2cccc(NS(C)(=O)=O)c2)nc1 [Compound 253] | > 100 µM | ≤ 1 µM
11 | CS(=O)(=O)Nc1cccc(C(=O)OCC(=O)Nc2nc3ccccc3o2)c1 [Compound 270] | > 100 µM | ≤ 1 µM
12 | CCOC(=O)c1cc(-c2ccccc2)sc1NC(=O)Cn1cnc(-c2cccc(NS(C)(=O)=O)c2)n1 [Compound 274] | > 100 µM | ≤ 1 µM
13 | CCOC(=O)c1cc(-c2ccccc2)sc1C(=O)CNC(=O)c1cccc(NS(C)(=O)=O)c1 [Compound 292] | > 100 µM | ≤ 1 µM
14 | CCOC(=O)c1cc(-c2ccccc2)sc1-c1cccc(NC(=O)c2cccc(NS(C)(=O)=O)c2)c1 [Compound 293] | > 100 µM | > 25 µM
15 | CCOC(=O)c1cc(-c2ccccc2)sc1C1=CCN(C(=O)c2cccc(NS(C)(=O)=O)c2)CC1 [Compound 294] | > 100 µM | ≤ 1 µM
16 | CCOC(=O)c1cc(-c2ccccc2)sc1NC(=O)CNC(=O)Cc1cccc(NS(C)(=O)=O)c1 [Compound 310] | ≤ 25 µM | ≤ 1 µM
17 | CCOC(=O)c1cc(-c2ccccc2)sc1NC(=O)CCS(=O)(=O)c1cccc(NS(C)(=O)=O)c1 [Compound 321] | > 100 µM | ≤ 1 µM
18 | CCOC(=O)c1cc(-c2ccccc2)sc1NC(=O)COC(=O)c1cccc(P(=O)(O)O)c1 [Compound 325] | > 100 µM | ≤ 1 µM
19 | CCOC(=O)c1cc(-c2ccccc2)sc1NC(=O)CNC(=O)Cc1cccc(C(F)(F)F)c1 [Compound 326] | > 100 µM | ≤ 1 µM
20 | CCOC(=O)c1cc(-c2ccccc2)sc1NC(=O)CNC(=O)Cc1ccc(S(C)(=O)=O)cc1 [Compound 327] | > 100 µM | ≤ 1 µM

Row | SMILES | EC50 (ADAR1) | Kd (Zα domain of ADAR1 p150)
21 | CCOC(=O)c1cc(-c2ccccc2)sc1NC(=O)CNC(=O)Cc1cccc(OC(F)(F)F)c1 [Compound 328] | > 100 µM | ≤ 1 µM
22 | CCOC(=O)c1cc(-c2ccccc2)sc1-c1coc(CNc2cccc(NS(C)(=O)=O)c2)c1 [Compound 329] | > 100 µM | 1 to 10 µM
23 | CCOC(=O)c1cc(-c2ccccc2)sc1NC(=O)CNC(=O)Cc1cccc(Br)c1 [Compound 330] | > 100 µM | ≤ 1 µM
24 | CCOC(=O)c1cc(-c2ccccc2)sc1NC(=O)COC(=O)c1cccc(P(=O)(OCC)OCC)c1 [Compound 343] | > 100 µM | ≤ 1 µM
25 | CCOC(=O)c1cc(-c2ccccc2)sc1NC(=O)CNC(=O)c1cccc(P(=O)(OCC)OCC)c1 [Compound 344] | > 100 µM | > 25 µM
26 | CCOC(=O)c1cc(N)nn1C(=O)COC(=O)c1cccc(NS(C)(=O)=O)c1 [Compound 346] | > 100 µM | ≤ 1 µM
27 | CCOC(=O)c1cc(-c2ccccc2)[nH]c1NC(=O)COC(=O)c1cccc(P(=O)(OCC)OCC)c1 [Compound 349] | > 100 µM | > 25 µM
28 | CCOC(=O)c1cc(-c2ccccc2)sc1NC(=O)CNC(=O)Cc1cccc(P(=O)(O)O)c1 [Compound 350] | > 100 µM | ≤ 1 µM
29 | CCOC(=O)c1cc(-c2ccccc2)sc1NC(=O)CNC(=O)Cc1cccc(OS(N)(=O)=O)c1 [Compound 351] | > 100 µM | ≤ 1 µM
30 | CCOC(=O)c1cc(-c2ccccc2)[nH]c1NC(=O)COC(=O)c1cccc(P(=O)(O)O)c1 [Compound 355] | > 100 µM | ≤ 1 µM
31 | CCOC(=O)c1sc(NC(=O)COC(=O)c2cccc(P(=O)(OCC)OCC)c2)nc1-c1ccccc1 [Compound 356] | > 100 µM | > 25 µM
32 | CCOC(=O)c1cc(-c2ccccc2)sc1NC(=O)CNC(=O)c1cccc(Br)c1 [Compound 358] | > 100 µM | ≤ 1 µM
33 | CCOC(=O)c1cc(-c2ccccc2)sc1NC(=O)COC(=O)c1cccc(C(=O)OC)c1 [Compound 359] | > 100 µM | ≤ 1 µM
34 | CCOC(=O)c1cc(-c2ccccc2)sc1NC(=O)C1CCN(C(=O)c2cccc(P(=O)(OCC)OCC)c2)C1 (stereo not drawn) [Compound 361] | 50 to 100 µM | > 25 µM
35 | CCOC(=O)c1cc(-c2ccccc2)sc1NC(=O)CNC(=O)Cc1ccc(S(N)(=O)=O)cc1 [Compound 363] | > 100 µM | ≤ 1 µM
36 | CCOC(=O)c1cc(-c2ccccc2)sc1NC(=O)CN1C[C@H]2CC[C@@H](C1)N2S(C)(=O)=O [Compound 364] | > 100 µM | > 25 µM
37 | CCOC(=O)c1cc(-c2ccccc2)sc1NC(=O)CNC(=O)CCc1cccc(NS(C)(=O)=O)c1 [Compound 365] | > 100 µM | ≤ 1 µM
38 | CCOC(=O)c1cc(-c2ccccc2)sc1NC(=O)CNC(=O)Cc1ccc(Cl)c(NS(C)(=O)=O)c1 [Compound 366] | > 100 µM | ≤ 1 µM
39 | CCOC(=O)c1cc(-c2ccccc2)sc1NC(=O)CNC(=O)c1cccc(P(=O)(O)O)c1 [Compound 367] | > 100 µM | ≤ 1 µM
